Here are results for 79 molecules from the METLIN SMRT retention time set (Domingo-Almenara et al. 2019).

This series in a line: gradient 5% acetonitrile 3 min, to 50% in 2 min, to 85% in 15 min, held 3 min, 100 µL/min. Particulars: column: Zorbax Extend-C18 2.1 x 50 mm; eluents: water / acetonitrile, 0.1% formic acid. In a few lines: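 Retention times of pure standards were taken from adduct peaks that were selected by computer and manually inspected. Over 3 months, mixtures of ~100 molecules were run by HPLC–quadrupole time-of-flight mass spectrometry in positive and negative ionization mode. The Zorbax Extend-C18 column (2.1 × 50 mm, 1.8 μm) ran at 100 μL/min in water and acetonitrile, each containing 0.1% formic acid, with 40 μL dead volume and 900 μL dwell volume.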
As for `Cc1noc(C)c1CNC(=O)c1ccc2nc[nH]c2c1`, the RP-LC retention time came to 561 s.

`O=C(Nc1cccc(-c2noc(C3CCC3)n2)c1)c1cccs1`: the RP-LC retention time came out at 1060 s. The same measure for `COCCNC(=O)c1cc(-c2ccccn2)nc2ccccc12`: 650 s; for `Cc1cccc(Cn2c(=O)n(CCNC(=O)CC(C)C)c3ncccc32)c1`: 800 s. For `CCn1nc(CNC(=O)c2cccs2)c2ccccc21` the value was 798 s; for `CC(NC(=O)c1ccc2c(c1)CCCN2S(C)(=O)=O)c1ccccc1` (centres undefined), 862 s; for `CCOC(=O)c1[nH]c(C)c(CCC(=O)N2CCC(C(=O)NCc3ccc4c(c3)OCO4)CC2)c1C`, 764 s. As for `COc1ccc(OC)c(NC(=O)NC2CCN(c3ccc(C)cc3)C2=O)c1` (centres undefined), the RP-LC retention time is 837 s. For `COC(=O)c1ccc2c(=O)n(-c3ccc(Cl)cc3)c(N3CCN(c4ccccn4)CC3)nc2c1` the value was 753 s; for `Cc1ccc2c(c1)C(=O)NC1(CCN(C(=O)c3ccc(C(F)(F)F)cc3)CC1)N2C`, 871 s; for `O=C(NCc1ccc(F)cc1F)c1ccc2c(c1)nc1n2CCN(c2ccccc2)C1=O`, 781 s. The same measure for `CCSc1nnc(-c2nn(C)c3c2CN(S(=O)(=O)c2ccc4c(c2)OCCO4)CC3)n1CC`: 895 s; for `CCN(C(=O)Cn1nc2n(c1=O)CCCCC2)c1ccccc1`: 709 s. The same measure for `O=C(C1CCN(S(=O)(=O)c2cc(-c3noc(C4CC4)n3)cs2)CC1)N1CCc2ccccc2C1`: 1020 s. `O=C(C1CC(=O)N(C2CCCCCC2)C1)N1CCCN(c2ccc(=O)n(-c3ccccc3)n2)CC1` (centres undefined): the RP-LC retention time stood at 740 s. For the molecule `Fc1ccc(-c2csc(Cc3nc(-c4ccccc4Cl)no3)n2)cc1`, the RP-LC retention time was 1260 s. For `O=C(NCc1ccccn1)C(=O)NCC1OCCN1C(=O)c1ccc2c(c1)OCO2` (centres undefined) the value was 563 s; for `O=S(=O)(NCc1ccccc1C(F)(F)F)c1c[nH]c2ncccc12`, 785 s.

`Cc1cccc(NC(=O)CN2C(=O)C3CCCN3C(=O)c3ccc(F)cc32)c1C` (centres undefined) registered an RP-LC retention time of 731 s. For `Cc1nc(CC(=O)Nc2nc(-c3ccc(F)cc3)c(C)s2)cs1` the value was 894 s. In turn, `Cc1cc(Cl)ccc1OCC(=O)Nc1nc(-c2ccc(F)cc2)cs1` displayed an RP-LC retention time of 1190 s. The same measure for `Cc1oc(C2CCN(S(=O)(=O)c3ccc(Cl)cc3)CC2)nc1C(=O)N1CCCC1`: 977 s. On to `O=C(Cn1cc(S(=O)(=O)Cc2cccc(Cl)c2)c2ccccc21)N1CCOCC1`, for which the RP-LC retention time was 774 s. With `CCOC(=O)c1c(C)oc2nc(C)nc(N(C)Cc3ccccc3)c12`, the RP-LC retention time is 1150 s. For `CCCc1nc2cccnc2n1C1CCN(C(=O)Cc2cccs2)C1` (centres undefined) the value was 612 s; for `O=C(CCc1ccccc1)N1CCN(c2nc(CN3CCOCC3)cs2)CC1`, 624 s; for `O=C(Nc1ccccc1-c1nc2ccccc2s1)c1c(F)cccc1F`, 1270 s. The same measure for `Cn1nccc1-c1cccc(-c2noc(Cc3ccc(F)cc3)n2)c1`: 1040 s; for `O=C(c1ccc(F)c(Cl)c1)N1CCN(c2nc(CN3CCOCC3)cs2)CC1`: 638 s; for `CCn1cc(-c2ccc(Cl)cc2)cc1C(=O)NCCCN1CCCC1=O`: 879 s. For `Cc1cc(NC(=O)c2cn3c(n2)CSCC3)ccc1F` the value was 743 s. On to `COc1ccc(-c2csc(CN3CCN(C(=O)c4c(F)cccc4Cl)CC3)n2)cc1`, for which the RP-LC retention time turned out to be 805 s. For `Cc1ccc(C)c(C(=O)N2CCC3(CC2)N=C(c2ccccc2)NO3)c1` the value was 855 s. The molecule `CC(C)Cn1cc(CCNC(=O)Nc2ccc(F)cc2)c2cccnc21` yielded an RP-LC retention time of 812 s. Consider `CSc1ccc(-c2nc3cnccn3c2Nc2cccc(C(N)=O)c2)cc1`, for which the RP-LC retention time came to 684 s.

For `CCCS(=O)(=O)c1nc2ccc(NS(=O)(=O)c3ccccc3)cc2s1`, the RP-LC retention time came to 879 s. In turn, `O=C(CCCn1nnc2ccccc2c1=O)Nc1ccc(F)c(Cl)c1` showed an RP-LC retention time of 794 s. For `Cc1ccn2cc(-c3ccc(NC(=O)c4ccc(Br)o4)cc3)nc2n1` the value was 647 s; for `CC(C)(C)c1noc(-c2ccnc(-n3cnc(C(=O)NCC4CC4)c3)c2)n1`, 1110 s; for `Cc1nnc(N2CCC(C(=O)N3CCCC3)CC2)c2nn(-c3ccccc3)c(C)c12`, 658 s. In turn, `CCCNC(=O)CCc1c(C)n(C)c2nc(-c3ccccc3)nn2c1=O` yielded an RP-LC retention time of 665 s. For `CCC(C)NC(=O)C1CCN(c2cnn(Cc3ccccc3)c(=O)c2)CC1` (centres undefined) the value was 721 s; for `CN(C)c1ccc(CNc2ccc(-c3nc(-c4cccc(F)c4)no3)cn2)cc1`, 912 s; for `Cn1nc(C(=O)N2CCCC(C(=O)Nc3ccccc3)C2)c2c1CCN(C(=O)c1cccs1)C2` (centres undefined), 730 s. Turning to `Nc1cc(C2CCN(C(=O)Nc3cccc(Cl)c3F)CC2)no1`, the RP-LC retention time was 676 s. The same measure for `Cc1cc(-c2nnc(C3CCC3)o2)c(C)n1CC(=O)NCc1ccc2c(c1)OCO2`: 816 s; for `CCOc1ccccc1NC(=O)C1(C)Oc2cccnc2NC1=O` (centres undefined): 776 s; for `O=S(=O)(c1cccnc1)N1CC(F)(F)C[C@H]1c1nc(C2CC2)no1`: 815 s.

Molecule `CCn1ccc(C(=O)N2CC(c3nc(C4CC4)nn3C)C2)n1` displayed an RP-LC retention time of 610 s. Take `O=C(Nc1ccccc1)N1CCC2(CC1)CC(N1CCOCC1)CCO2` (centres undefined): the RP-LC retention time is 583 s. The same measure for `COc1ccc(C2=Nc3ccccc3N(CC(=O)Nc3ccc4c(c3)OCO4)C(=O)C2)cc1`: 895 s. `CC(C)n1cnc2cc(CNC(=O)c3c(F)cccc3Cl)ccc21` had an RP-LC retention time of 617 s. The same measure for `O=C(CSc1ccc(N2CCCC(C(=O)NC3CC3)C2)nn1)NCc1ccc(C(F)(F)F)cc1` (centres undefined): 694 s. The same measure for `O=C1NC2(CCN(C(=O)Cc3cccc(F)c3)CC2)Nc2cc(Cl)ccc21`: 808 s; for `Cc1ccccc1NC(=O)C1CCN(S(=O)(=O)c2ccc3c(c2)sc(=O)n3C(C)C)CC1`: 951 s. For `Cc1ccc(CNC(=O)C2(CCO)CCN(c3ncccn3)C2)o1` (centres undefined), the RP-LC retention time was 602 s.

`Cc1cc(C)n(CCNC(=O)C(=O)Nc2ccc(Cl)cn2)n1` gave an RP-LC retention time of 692 s. The same measure for `CSc1cccc(NC(=O)N2CCC(CC(=O)NCc3cccc(F)c3)CC2)c1`: 843 s; for `CN1C[C@@H](CO)C=C2c3cccc4[nH]cc(c34)C[C@@H]21`: 607 s. The same measure for `COc1ccc(NC(=O)Cn2cnc(-c3nc(C)cs3)c2)cc1Cl`: 699 s. The same measure for `O=C(Nc1ccc2c(c1)OCO2)N1CCN(c2nc3cccnc3n(Cc3ccccc3)c2=O)CC1`: 1010 s.

Consider `O=C(CN1C(=O)C(C(=O)N2CCCC2)Sc2ccccc21)Nc1ccc(F)cc1` (centres undefined), for which the RP-LC retention time was determined as 978 s. The same measure for `CCCCOC(=O)c1ccc(Nc2ncnc(N)c2[N+](=O)[O-])cc1`: 930 s. In turn, `Cn1nc(-c2nnc(-c3ccc(F)cc3)o2)c2c1CCN(C(=O)Nc1ccccc1)C2` showed an RP-LC retention time of 833 s. For `CCn1cc(CCNC(=O)Nc2ccc(Br)cc2)c2cccnc21` the value was 802 s; for `CN(C)C(=O)C1CCN(c2nc3ccc(-c4ccccc4)nc3s2)CC1`, 888 s. The same measure for `COC(=O)c1ccc(NC(=O)CN2CCC(c3nc(-c4cccs4)no3)CC2)cc1`: 621 s; for `Cc1ccc(NC(=O)CSc2nccc(N3CCN(c4cc(C)ccc4C)CC3)n2)c(Cl)c1`: 1190 s; for `Cc1cc(C)cc(N2CCC(NC(=O)Nc3ccc(F)cc3F)C2=O)c1` (centres undefined): 904 s. In turn, `CCC(=O)N1CCc2c(sc3ncnc(NCc4ccccc4)c23)C1` gave an RP-LC retention time of 790 s.

On to `COC(=O)C1=CN(CC(=O)NCc2ccc(Cl)cc2)S(=O)(=O)N=C1C`, for which the RP-LC retention time came to 850 s. The same measure for `COc1ccc(C)cc1NC(=O)Cn1nc2c(Oc3cc(C)cc(C)c3)nccn2c1=O`: 1050 s. The same measure for `Cc1ccc(-n2nc(N3CCN(C(=O)Nc4ccc(F)cc4F)CC3)ccc2=O)cc1`: 781 s; for `COCCCNC(=O)N1CCCN(C2=NS(=O)(=O)C(c3ccccc3)=C2C)CC1`: 679 s; for `Cc1ccc(CNC(=O)C2CCN(c3cnc(N4CCCC4)nc3)CC2)cc1C`: 716 s.

As to `O=C(CCn1nnc2cc(-c3noc(-c4ccccc4Br)n3)ccc21)N1CCOCC1`, the RP-LC retention time is 896 s. The same measure for `Cc1ccc(NC(=O)C2CCN(C(=O)C3Sc4ccccc4NC3=O)CC2)cc1Cl` (centres undefined): 878 s; for `COc1ccccc1NC(=O)c1cc2ccccc2cc1O`: 1060 s; for `Cc1noc(C2CN(C(=O)c3ccc(F)c(F)c3)CC23CCOCC3)n1` (centres undefined): 710 s.
